Where two headings read alike, the source gives them in different places.
Columns and labels:
Assay type in all cases: cell-based, human
[1] = tested on: genes known to have a role in fibrogenic responses (e.g., LGALS3, LOX, MMP1); assay: Fibrogenic response gene expression overall, Example 9; details: DEX / no DEX, with / without KCs
Protocol: (§1) Methods: The hepatic tri-culture system, including adult primary human hepatocytes (PHHs), endothelial cells and stromal cells, was cultured with and without primary KCs, at a ratio of 1 KC:4 PHH or 1 KC:2 PHH, in a glucocorticoid-containing or -free media. […] MTX or TGF-β1 or […] (LPS) cause hepatic injury. The injury leads to lipid accumulation, lipotoxicity and cytokines are produced. These activate the KCs and the liver sinusoidal endothelial cells (LSEC). Then stromal activation and gene expressions occur, leading to liver fibrosis.
(§2) Following exposure to methotrexate (MTX; 0.1 and 1 μM; Sigma-Aldrich, St. Louis, MO) or TGF-β1 (0.1 and 10 ng/ml; Miltenyi Biotec, Gaithersburg, MD) or vehicle (DMSO; 0.1% v/v), the expression of various genes known to have a role in fibrogenic responses (e.g., LGALS3, LOX, MMP1) was determined. MTX and TGF-β1 are known fibrogenic compounds Cell health was assessed by urea production and LDH release in the medium.
(§3) The experiments were done in a 96-well format according to the details shown below. […] The hepatocytes were from an individual adult lot. The Kupffer cells (KCs) were from an individual adult lot. The seeding density of the Kupffer cells to the hepatocytes was selected to mimic healthy or inflammatory physiological levels (1:4 or 1:2 ratio). The seeding of the KCs occurred on Day 1 of the culture (meaning 24 hours post-hepatocyte plating).
(§4) All hepatocyte plating was performed using TCPM with Dex (1 μM), as above. Four hours after hepatocyte plating, TCCM was added with and without Dex (half of the cultures with Dex, half without.) The media used were those as described above. The medium exchange process was to do 50% media changes following KC plating up until the compound addition.
Thawing and plating of the hepatocytes was done according to methods as known in the art. The next day (24 hours) after plating the cells, the KCs were added in TCCM with or without Dex (0.1 μM) at a 1:4 or 1:2 ratio to hepatocytes. […]
The cell harvest and analytical endpoints were done as follows. […] The treatment samples were analyzed in triplicate. […]

LGALS3 (Galectin3) = assay: cells; details: for fold induction at 0.1 µM / fold induction at 1 µM: Homo sapiens
Protocol: as §1, §2, §3, §4
(§5) Thawing and plating of the hepatocytes was done according to methods as known in the art. The next day (24 hours) after plating the cells, the KCs were added in TCCM with or without Dex (0.1 μM) at a 1:4 or 1:2 ratio to hepatocytes. The next day and subsequent days, 50% volume of medium was changed each day. Starting at day 5 of culture, the compounds tested were added in the 50% medium volume and allowed to go, unchanged, through Day 8 of culture (72 hr treatment); or to 120 hr treatment times. The treatment compounds were methotrexate (0.1 and 1.0 μM) and TGF-β1 (0.1 and 10 ng/ml).
(§6) The cell harvest and analytical endpoints were done as follows. Phase contrast images were captured each day. The media samples were collected for lactate dehydrogenase (LDH) assay at the end of each treatment period (i.e., 72 or 120 hours of treatment with each compound). The results were used to assess cell health. Cell lysates were harvested for gene expression analysis. 2 wells were combined per sample. The treatment samples were analyzed in triplicate. The following genes that have a role in fibrogenic response were observed. LGALS3 (Galectin3); LOX (lysyl oxidase), MMP1 (matrix Metalloproteinase 1); Housekeeping gene (β-actin). The images in FIGS. 44 and 45 are at 200×.

[2] = tested on: MMP1 (matrix Metalloproteinase 1); assay: cells; details: Homo sapiens
Protocol: as §1, §2, §3, §4, §5, §6

LOX (lysyl oxidase) = assay: cells; details: Homo sapiens
Protocol: as §1, §2, §3, §4, §5, §6

SMILES: CN(Cc1cnc2nc(N)nc(N)c2n1)c1ccc(C(=O)N[C@@H](CCC(=O)O)C(=O)O)cc1 [MTX, methotrexate]
- culture conditions in which effects on fibrogenic genes were observed [1]: observed on the no DEX treated groups with KCs
- fold induction at 0.1 µM (LGALS3 (Galectin3); 72 h, read-out: LGALS3 fold induction Mean, 72 hours, with Dex, No KC, MTX 0.1 μM): 1
- fold induction at 1 µM (LGALS3 (Galectin3); 72 h, read-out: LGALS3 fold induction Mean, 72 hours, with Dex, No KC, MTX 1 μM): 1.2
- fold induction at 0.1 µM (LGALS3 (Galectin3); 72 h, read-out: LGALS3 fold induction Mean, 72 hours, with Dex, with KCs, MTX 0.1 μM): 1
- fold induction at 1 µM (LGALS3 (Galectin3); 72 h, read-out: LGALS3 fold induction Mean, 72 hours, with Dex, with KCs, MTX 1 μM): 1.1
- fold induction at 0.1 µM (LGALS3 (Galectin3); 72 h, read-out: LGALS3 fold induction Mean, 72 hours, without Dex, No KC, MTX 0.1 μM): 1.2
- fold induction at 1 µM (LGALS3 (Galectin3); 72 h, read-out: LGALS3 fold induction Mean, 72 hours, without Dex, No KC, MTX 1 μM): 1.2
- fold induction at 0.1 µM (LGALS3 (Galectin3); 72 h, read-out: LGALS3 fold induction Mean, 72 hours, without Dex, with KCs, MTX 0.1 μM): 1.5
- fold induction at 1 µM (LGALS3 (Galectin3); 72 h, read-out: LGALS3 fold induction Mean, 72 hours, without Dex, with KCs, MTX 1 μM): 1.7
- fold induction at 0.1 µM (LGALS3 (Galectin3); 120 h, read-out: LGALS3 fold induction Mean, 120 hours, with Dex, No KC, MTX 0.1 μM): 1.2
- fold induction at 1 µM (LGALS3 (Galectin3); 120 h, read-out: LGALS3 fold induction Mean, 120 hours, with Dex, No KC, MTX 1 μM): 1.1
- fold induction at 0.1 µM (LGALS3 (Galectin3); 120 h, read-out: LGALS3 fold induction Mean, 120 hours, with Dex, with KCs, MTX 0.1 μM): 0.9
- fold induction at 1 µM (LGALS3 (Galectin3); 120 h, read-out: LGALS3 fold induction Mean, 120 hours, with Dex, with KCs, MTX 1 μM): 1.1
- fold induction at 0.1 µM (LGALS3 (Galectin3); 120 h, read-out: LGALS3 fold induction Mean, 120 hours, without Dex, No KC, MTX 0.1 μM): 1.1
- fold induction at 1 µM (LGALS3 (Galectin3); 120 h, read-out: LGALS3 fold induction Mean, 120 hours, without Dex, No KC, MTX 1 μM): 0.2
- fold induction at 0.1 µM (LGALS3 (Galectin3); 120 h, read-out: LGALS3 fold induction Mean, 120 hours, without Dex, with KCs, MTX 0.1 μM): 1.4
- fold induction at 1 µM (LGALS3 (Galectin3); 120 h, read-out: LGALS3 fold induction Mean, 120 hours, without Dex, with KCs, MTX 1 μM): 1.4
- LGALS3 gene expression (LGALS3 (Galectin3); MTX at both concentrations, presence of KCs, 120 hr versus 72 hr): slight decline
- fold induction at 0.1 µM ([2]; 72 h, read-out: MMP1 fold induction Mean, 72 hours, with Dex, No KC, MTX 0.1 μM): 1.2
- fold induction at 1 µM ([2]; 72 h, read-out: MMP1 fold induction Mean, 72 hours, with Dex, No KC, MTX 1 μM): 1.2
- fold induction at 0.1 µM ([2]; 72 h, read-out: MMP1 fold induction Mean, 72 hours, with Dex, with KCs, MTX 0.1 μM): 1.1
- fold induction at 1 µM ([2]; 72 h, read-out: MMP1 fold induction Mean, 72 hours, with Dex, with KCs, MTX 1 μM): 0.9
- fold induction at 0.1 µM ([2]; 72 h, read-out: MMP1 fold induction Mean, 72 hours, without Dex, No KC, MTX 0.1 μM): 0.9
- fold induction at 1 µM ([2]; 72 h, read-out: MMP1 fold induction Mean, 72 hours, without Dex, No KC, MTX 1 μM): 0.7
- fold induction at 0.1 µM ([2]; 72 h, read-out: MMP1 fold induction Mean, 72 hours, without Dex, with KCs, MTX 0.1 μM): 1.2
- fold induction at 1 µM ([2]; 72 h, read-out: MMP1 fold induction Mean, 72 hours, without Dex, with KCs, MTX 1 μM): 1.4
- fold induction at 1 µM ([2]; 72 h, read-out: MMP1 gene expression, 1 μM MTX, presence of KCs, 72 hr only): 1.4
- fold induction at 1 µM ([2]; 120 h, read-out: MMP1 fold induction Mean, 120 hours, with Dex, No KC, MTX 1 μM): 0.7
- fold induction at 0.1 µM ([2]; 120 h, read-out: MMP1 fold induction Mean, 120 hours, with Dex, with KCs, MTX 0.1 μM): 1
- fold induction at 1 µM ([2]; 120 h, read-out: MMP1 fold induction Mean, 120 hours, with Dex, with KCs, MTX 1 μM): 0.6
- fold induction at 0.1 µM ([2]; 120 h, read-out: MMP1 fold induction Mean, 120 hours, without Dex, No KC, MTX 0.1 μM): 0.7
- fold induction at 1 µM ([2]; 120 h, read-out: MMP1 fold induction Mean, 120 hours, without Dex, No KC, MTX 1 μM): 0.7
- fold induction at 0.1 µM ([2]; 120 h, read-out: MMP1 fold induction Mean, 120 hours, without Dex, with KCs, MTX 0.1 μM): 0.7
- fold induction at 1 µM ([2]; 120 h, read-out: MMP1 fold induction Mean, 120 hours, without Dex, with KCs, MTX 1 μM): 0.9
- fold induction at 0.1 µM (LOX (lysyl oxidase); 72 h, read-out: LOX fold induction Mean, 72 hours, with Dex, No KC, MTX 0.1 μM): 1.2
- fold induction at 1 µM (LOX (lysyl oxidase); 72 h, read-out: LOX fold induction Mean, 72 hours, with Dex, No KC, MTX 1 μM): 1.1
- fold induction at 0.1 µM (LOX (lysyl oxidase); 72 h, read-out: LOX fold induction Mean, 72 hours, with Dex, with KCs, MTX 0.1 μM): 1
- fold induction at 1 µM (LOX (lysyl oxidase); 72 h, read-out: LOX fold induction Mean, 72 hours, with Dex, with KCs, MTX 1 μM): 1
- fold induction at 0.1 µM (LOX (lysyl oxidase); 72 h, read-out: LOX fold induction Mean, 72 hours, without Dex, No KC, MTX 0.1 μM): 1.1
- fold induction at 1 µM (LOX (lysyl oxidase); 72 h, read-out: LOX fold induction Mean, 72 hours, without Dex, No KC, MTX 1 μM): 1.1
- fold induction at 0.1 µM (LOX (lysyl oxidase); 72 h, read-out: LOX fold induction Mean, 72 hours, without Dex, with KCs, MTX 0.1 μM): 1.3
- fold induction at 1 µM (LOX (lysyl oxidase); 72 h, read-out: LOX fold induction Mean, 72 hours, without Dex, with KCs, MTX 1 μM): 1.5
- fold induction at 1 µM (LOX (lysyl oxidase); 120 h, read-out: LOX fold induction Mean, 120 hours, with Dex, No KC, MTX 1 μM): 0.8
- fold induction at 0.1 µM (LOX (lysyl oxidase); 120 h, read-out: LOX fold induction Mean, 120 hours, with Dex, with KCs, MTX 0.1 μM): 1
- fold induction at 1 µM (LOX (lysyl oxidase); 120 h, read-out: LOX fold induction Mean, 120 hours, with Dex, with KCs, MTX 1 μM): 1.1
- fold induction at 0.1 µM (LOX (lysyl oxidase); 120 h, read-out: LOX fold induction Mean, 120 hours, without Dex, No KC, MTX 0.1 μM): 1
- fold induction at 1 µM (LOX (lysyl oxidase); 120 h, read-out: LOX fold induction Mean, 120 hours, without Dex, No KC, MTX 1 μM): 1.2
- fold induction at 0.1 µM (LOX (lysyl oxidase); 120 h, read-out: LOX fold induction Mean, 120 hours, without Dex, with KCs, MTX 0.1 μM): 1.4
- fold induction at 1 µM (LOX (lysyl oxidase); 120 h, read-out: LOX fold induction Mean, 120 hours, without Dex, with KCs, MTX 1 μM): 1.5
- fold induction at 1 µM (LOX (lysyl oxidase); read-out: LOX gene expression, 1 μM MTX, presence of KCs, 72 hr and 120 hr): ≥ 1.5
